Molecules are shown by their SMILES.

One may read the IC50 as the concentration needed to halve the response being measured. Higher therefore signals a need for much substance.

Assay [1] addresses T1, histone deacetylase activity (HeLa nuclear extract).
T1 construct: Histone deacetylase activity from crude nuclear extract derived from HeLa cells was used for screening
Put plainly: HDAC fluorescent activity assay (Biomol Fluor de Lys), HeLa nuclear extract. Particulars: Fluor de Lys substrate, IC50 range. It counts as biochemical. As to the method:
The ability of compounds to inhibit histone deacetylase activities was measured using the commercially available HDAC fluorescent activity assay from Biomol. In brief, the Fluor de Lys™ substrate, a lysine with an epsilon-amino acetylation, is incubated with the source of histone deacetylase activity (HeLa nuclear extract) in the presence or absence of inhibitor. Deacetylation of the substrate sensitises the substrate to Fluor de Lys™ developer, which generates a fluorophore. Thus, incubation of the substrate with a source of HDAC activity results in an increase in signal that is diminished in the presence of an HDAC inhibitor.
Data are expressed as a percentage of the control, measured in the absence of inhibitor, with background signal being subtracted from all samples, as follows:— % activity=((S^i−B)/(S^o−B))×100 where S^i is the signal in the presence of substrate, enzyme and inhibitor, S^o is the signal in the presence of substrate, enzyme and the vehicle in which the inhibitor is dissolved, and B is the background signal measured in the absence of enzyme.
IC50 values were determined by non-linear regression analysis, after fitting the results of eight data points to the equation for sigmoidal dose response with variable slope (% activity against log concentration of compound), using Graphpad Prism software.
Histone deacetylase activity from crude nuclear extract derived from HeLa cells was used for screening. The preparation, purchased from 4C (Seneffe, Belgium), was prepared from HeLa cells harvested whilst in exponential growth phase. The nuclear extract is prepared according to Dignam JD1983 Nucl. Acid. Res. 11, 1475-1489, snap frozen in liquid nitrogen and stored at −80° C. The final buffer composition was 20 mM Hepes, 100 mM KCl, 0.2 mM EDTA, 0.5 mM DTT, 0.2 mM PMSF and 20% (v/v) glycerol.

Assay [2] concerns Hela cancer cell line. Nature of the assay: Cell inhibition assay (SRB cell viability), Hela. It counts as cell-based. As to conditions: 72 h, Hela cells, IC50 range. As for the experimental part:
(§1) The corresponding cancer cell lines (Hela, U937 and HUT) growing in log phase were harvested and seeded at 1000 cells/well (200 ul final volume) into 96-well tissue culture plates. Following 24 h of cell growth cells were treated with compounds (final concentration of 20 uM). Plates were then re-incubated for a further 72 h before a sulphorhodamine B (SRB) cell viability assay was conducted according to Skehan 1990 J Natl Canc Inst 82, 1107-1112.
(§2) Data were expressed as a percentage inhibition of the control, measured in the absence of inhibitor, as follows:— % inhibition=100−((S^i/S^o)×100) where S^i is the signal in the presence of inhibitor and S^o is the signal in the presence of DMSO. IC50 values were determined by non-linear regression analysis, after fitting the results of eight data points to the equation for sigmoidal dose response with variable slope (% activity against log concentration of compound), using Graphpad Prism software. […] NT=Not tested

Assay [3] relates to HUT cancer cell line. Nature of the assay: Cell inhibition assay (SRB cell viability), HUT. It counts as cell-based. Particulars: HUT cells, 72 h, IC50 range. As for the experimental part: as §1, §2
The test system of assay [4] is U937 cancer cell line. Nature of the assay: Cell inhibition assay (SRB cell viability), U937. It counts as cell-based. As to conditions: Homo sapiens, U-937, U937 cells, 72 h, IC50 range. As for the experimental part:
as §1, §2

Take `O=C(CCCCCCC(=O)Nc1cccc(CN[C@@H](Cc2ccccc2)C(=O)O)c1)NO` [Compound 27, (S)-2-[3-(7-Hydroxycarbamoyl-heptanoylamino)-benzylamino]-3-phenyl-propionic acid]: the IC50 was 101 to 1000 nM in assay [1] and greater than 3300 nM in assay [2] (Homo sapiens, HeLa).

Regarding `O=C(CCCCCCC(=O)Nc1cccc(CN[C@@H](CCc2ccccc2)C(=O)O)c1)NO` [Compound 30, (S)-2-[3-(7-Hydroxycarbamoyl-heptanoylamino)-benzylamino]-4-phenyl-butyric acid], the IC50 is 101 to 1000 nM in assay [1] and greater than 3300 nM in assay [2] (Homo sapiens, HeLa).

As for `CCOC(=O)[C@H](COC(C)(C)C)NCc1cccc(NC(=O)CCCCCCC(=O)NO)c1` [Compound 32, (S)-3-tert-Butoxy-2-[3-(7-hydroxycarbamoyl-heptanoylamino)-benzylamino]-propionic acid ethyl ester], the IC50 was less than 100 nM in assay [1]; 330 to 3300 nM in assay [3]; 330 to 3300 nM in assay [2] (Homo sapiens, HeLa).

With `CC(C)(C)OC[C@H](NCc1cccc(NC(=O)CCCCCCC(=O)NO)c1)C(=O)O` [Compound 33, (S)-3-tert-Butoxy-2-[3-(7-hydroxycarbamoyl-heptanoylamino)-benzylamino]-propionic acid], the IC50 in assay [1] was 101 to 1000 nM; in assay [2] (Homo sapiens, HeLa), greater than 3300 nM.

For `CC(C)C[C@H](NCc1cccc(NC(=O)CCCCCCC(=O)NO)c1)C(=O)OC1CCCC1` [Compound 39, (S)-2-[3-(7-Hydroxycarbamoyl-heptanoylamino)-benzylamino]-4-methyl-pentanoic acid cyclopentyl ester], the IC50 in assay [4] was less than 330 nM; in assay [1], 101 to 1000 nM; in assay [3] it was 330 to 3300 nM.

For the compound `O=C(CCCCCCC(=O)N1Cc2ccccc2C[C@H]1C(=O)N[C@H](C(=O)O)c1ccccc1)NO` [Compound 45, (S)-{[(S)-2-(7-Hydroxycarbamoyl-heptanoyl)-1,2,3,4-tetrahydro-isoquinoline-3-carbonyl]-amino}-phenyl-acetic acid], the half-maximal inhibitory concentration (IC50) in assay [1] was greater than 1000 nM; in assay [2] (Homo sapiens, HeLa), greater than 3300 nM.

Take `O=C(CCCCCCC(=O)N1Cc2ccccc2C[C@H]1C(=O)N[C@@H](Cc1ccccc1)C(=O)O)NO` [Compound 49, (S)-2-{[(S)-2-(7-Hydroxycarbamoyl-heptanoyl)-1,2,3,4-tetrahydro-isoquinoline-3-carbonyl]amino}-3-phenyl-propionic acid]: the values for the IC50 in assay [1] and in assay [2] were 101 to 1000 nM and greater than 3300 nM, respectively.

`O=C(CCCCCCC(=O)N1CCCC1C(=O)N[C@H](C(=O)O)c1ccccc1)NO` (stereo partly drawn) [Compound 54, (S)-{[1-(7-Hydroxycarbamoyl-heptanoyl)-pyrrolidine-2-carbonyl]-amino}-phenyl-acetic acid]: the IC50 in assay [1] is greater than 1000 nM; in assay [2] (Homo sapiens, HeLa), greater than 3300 nM.

Consider `O=C(CCCCCCC(=O)N1CCCC1C(=O)N[C@@H](Cc1ccccc1)C(=O)O)NO` (stereo partly drawn) [Compound 57, (S)-2-{[1-(7-Hydroxycarbamoyl-heptanoyl)-pyrrolidine-2-carbonyl]-amino}-3-phenyl-propionic acid], for which the IC50 in assay [1] is greater than 1000 nM; in assay [2] (Homo sapiens, HeLa), greater than 3300 nM.

In the case of `O=C(CCCCCCC(=O)N1Cc2[nH]c3ccccc3c2C(C(=O)NC(Cc2ccccc2)C(=O)O)C1)NO` [Compound 59, (S)-2-{[(S)-2-(7-Hydroxycarbamoyl-heptanoyl)-2,3,4,9-tetrahydro-1H-bet α-carboline-4-carbonyl]-amino}-3-phenyl-propionic acid], the IC50 was less than 100 nM in assay [1] and greater than 3300 nM in assay [2] (Homo sapiens, HeLa).

Regarding `O=C(CCCCCCC(=O)Nc1cccc(C(=O)N[C@H](C(=O)O)c2ccccc2)c1)NO` [Compound 61, (S)-[3-(7-Hydroxycarbamoyl-heptanoylamino)-benzoylamino]phenyl-acetic acid], the IC50 was 101 to 1000 nM in assay [1] and greater than 3300 nM in assay [2] (Homo sapiens, HeLa).

In the case of `O=C(CCCCCCC(=O)N1CCc2c([nH]c3ccccc23)C1C(=O)N[C@@H](Cc1ccccc1)C(=O)OC1CCCC1)NO` (stereo partly drawn) [Compound 64, (S)-2-{[2-(7-Hydroxycarbamoyl-heptanoyl)-2,3,4,9-tetrahydro-1H-beta-carboline-1-carbonyl]-amino}-3-phenyl-propionic acid cyclopentyl ester], the IC50 in assay [1] is 101 to 1000 nM; in assay [3] it was 330 to 3300 nM; in assay [2] (Homo sapiens, HeLa), 330 to 3300 nM.

In the case of `O=C(CCCCCCC(=O)N1CCc2c([nH]c3ccccc23)C1C(=O)N[C@@H](Cc1ccccc1)C(=O)O)NO` (stereo partly drawn) [Compound 65, (S)-2-{[2-(7-Hydroxycarbamoyl-heptanoyl)-2,3,4,9-tetrahydro-1H-beta-carboline-1-carbonyl]-amino}-3-phenyl-propionic acid], the IC50 in assay [1] was less than 100 nM; in assay [2] (Homo sapiens, HeLa), greater than 3300 nM.

Consider `O=C(CCCCCCC(=O)Nc1cncc(CN[C@@H](Cc2ccccc2)C(=O)O)c1)NO` [Compound 67, (S)-2-{[5-(7-Hydroxycarbamoyl-heptanoylamino)-pyridin-3-ylmethyl]-amino}-3-phenyl-propionic acid], for which the IC50 is 101 to 1000 nM in assay [1] and greater than 3300 nM in assay [2] (Homo sapiens, HeLa).

In the case of `O=C(CCCCCNC(=O)c1cccc(CN[C@H](C(=O)OC2CCCC2)c2ccccc2)c1)NO` [Compound 69, (S)-[3-(5-Hydroxycarbamoyl-pentylcarbamoyl)-benzylamino]-phenyl-acetic acid cyclopentyl ester], the IC50 fell in the range of 101 to 1000 nM in assay [1]; 330 to 3300 nM in assay [3]; 330 to 3300 nM in assay [2] (Homo sapiens, HeLa).

For the compound `O=C(CCCCCNC(=O)c1cccc(CN[C@H](C(=O)O)c2ccccc2)c1)NO` [Compound 70, (S)-[3-(5-Hydroxycarbamoyl-pentylcarbamoyl)-benzylamino]-phenyl-acetic acid], the concentration for half-maximal inhibition (IC50) was 101 to 1000 nM in assay [1] and greater than 3300 nM in assay [2] (Homo sapiens, HeLa).

As for `O=C(CCCCCCC(=O)Nc1cccc(CNC(=O)N[C@H](C(=O)OC2CCCC2)c2ccccc2)c1)NO` [Compound 79, (S)-{3-[3-(7-Hydroxycarbamoyl-heptanoylamino)-benzyl]-ureido}-phenyl-acetic acid cyclopentyl ester], the concentration for half-maximal inhibition (IC50) is greater than 3300 nM in assay [4], less than 100 nM in assay [1] and greater than 3300 nM in assay [3].

As for `O=C(CCCCCCC(=O)Nc1cccc(COC(=O)N[C@@H](Cc2ccccc2)C(=O)OC2CCCC2)c1)NO` [Compound 94, (S)-2-[3-(7-Hydroxycarbamoyl-heptanoylamino)-benzyloxycarbonylamino]-3-phenyl-propionic acid cyclopentyl ester], the IC50 in assay [4] fell in the range of 330 to 3300 nM; in assay [1], 101 to 1000 nM; in assay [3], 330 to 3300 nM.

Regarding `O=C(CNCc1ccc(CNCc2ccc3cc(C(=O)NO)sc3c2)cc1)OC1CCCC1` [Compound 120, (4-{[(2-Hydroxycarbamoyl-benzo[b]thiophen-6-ylmethyl)-amino]-methyl}-benzylamino)-acetic acid cyclopentyl ester], the IC50 is less than 330 nM in assay [4], less than 100 nM in assay [1] and less than 330 nM in assay [3].

Turning to `O=C(NO)c1cc2ccc(CNCC3CCC(CN[C@H](C(=O)OC4CCCC4)c4ccccc4)CC3)cc2s1` (stereo partly drawn) [Compound 126, (S)-[(4-{[(2-Hydroxycarbamoyl-benzo[b]thiophen-6-ylmethyl)-amino]-methyl}-cyclohexylmethyl)-amino]phenyl-acetic acid cyclopentyl ester], the IC50 in assay [4] is less than 330 nM; in assay [1] it was 101 to 1000 nM; in assay [3], greater than 3300 nM.

Compound `CC(C)C[C@H](NCC1CCC(CNCc2ccc3cc(C(=O)NO)sc3c2)CC1)C(=O)O` (stereo partly drawn) [Compound 129, (S)-2-[(4-{[(2-Hydroxycarbamoyl-benzo[b]thiophen-6-ylmethyl)-amino]-methyl}-cyclohexylmethyl)-amino]-4-methyl-pentanoic acid] yielded an IC50 in assay [1] of 101 to 1000 nM.

With `CC(C)(C)OC[C@H](NCc1ccc(NCc2ccc3cc(C(=O)NO)sc3c2)cc1)C(=O)OC1CCCC1` [Compound 134, (S)-3-tert-Butoxy-2-{4-[(2-hydroxycarbamoyl-benzo[b]thiophen-6-ylmethyl)-amino]-benzylamino}-propionic acid cyclopentyl ester], the IC50 in assay [4] is 330 to 3300 nM; in assay [1], 101 to 1000 nM; in assay [3], greater than 3300 nM.

For the origin of these results see patent US9133104B2 (Chroma Therapeutics Ltd., priority 2005, dated 2015).
